Values joined by “and” are separate entries in the source; they are usually repeats but may differ in a detail not shown here. Equal entries are not always repeated.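 How tested: cells in 96-well plates exposed to compound for 48 hours at five concentrations. Here, GI50 denotes the concentration required for 50% inhibition of growth. TGI is the concentration that stops growth completely.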
Tests used:
Assay in all cases: inhibition of tumour cell growth, NCI panel, 48 h
HCC-2998 colon = test system: HCC-2998 colon
LXFL 529 NSCLC = test system: LXFL 529 NSCLC
SNB-19 CNS = test system: SNB-19 CNS
HL-60(TB) leukemia = test system: HL-60(TB) leukemia
KM12 colon = test system: KM12 colon
U251 CNS = test system: U251 CNS
M19-MEL melanoma = test system: M19-MEL melanoma
TK-10 renal = test system: TK-10 renal
T-47D breast = test system: T-47D breast
OVCAR-4 ovarian = test system: OVCAR-4 ovarian

Compound	TGI (HCC-2998 colon)	TGI (LXFL 529 NSCLC)	TGI (SNB-19 CNS)	TGI (HL-60(TB) leukemia)	TGI (KM12 colon)	TGI (U251 CNS)	TGI (M19-MEL melanoma)	TGI (TK-10 renal)	GI50 (T-47D breast)	TGI (T-47D breast)	GI50 (HCC-2998 colon)	GI50 (SNB-19 CNS)	GI50 (HL-60(TB) leukemia)	GI50 (KM12 colon)	GI50 (U251 CNS)	GI50 (OVCAR-4 ovarian)	TGI (OVCAR-4 ovarian)	GI50 (TK-10 renal)
Cn1nc(-c2ccccc2)c2c(/C=C/c3ccccc3)onc2c1=O	> 100 µM	> 100 µM	> 100 µM	> 100 µM	> 100 µM	> 100 µM	> 100 µM	> 100 µM										
Cc1cc([N+](=O)[O-])c2ccccc2[n+]1[O-]	0.375 µM and 0.664 µM		4.06 µM and 8.29 µM	6.48 µM and 5.51 µM	0.829 µM and 1.05 µM	2.93 µM and 2.84 µM		0.541 µM and 0.623 µM	0.385 µM and 0.534 µM	3.23 µM and 4.89 µM	0.128 µM and 0.221 µM	0.448 µM and 0.848 µM	2.11 µM and 1.65 µM	0.173 µM and 0.203 µM	0.402 µM and 0.347 µM	2.72 µM and 2.61 µM	10.1 µM and 9.13 µM	0.187 µM and 0.21 µM
CC(SC(=O)Nc1ccc(N=Nc2ccccc2)cc1)C(=O)O (configuration not stated)	> 100 µM	> 100 µM	> 100 µM	> 100 µM	> 100 µM	> 100 µM		> 100 µM									> 100 µM	
CN1CSC(=S)N(Cc2ccccc2)C1	> 100 µM		> 100 µM	97.3 µM	4.19 µM	30.2 µM		9.41 µM	4.78 µM	23.4 µM	71 µM	77.1 µM	4.03 µM	1.87 µM	13.5 µM	14.2 µM	27.8 µM	3.39 µM
O=S(=O)(c1cnccc1N1CCN(CCO)CC1)N1CCCC1	> 100 µM		> 100 µM	> 100 µM	> 100 µM	> 100 µM		> 100 µM		> 100 µM							> 100 µM	
O=[N+]([O-])c1cccc(C2CC(c3ccccc3)=Nc3ccccc3S2)c1 (configuration not stated)	31 µM		44.8 µM	84.7 µM	19.3 µM	21.2 µM		42.2 µM	16.6 µM	52.6 µM	16 µM	15.4 µM	26.5 µM	6.32 µM	8.48 µM	11.7 µM	26.4 µM	22.1 µM
O=C1Cc2cc(C(=O)NC3C[C@H]4CC[C@@H](C3)N4S(=O)(=O)CC3CCN(CCCC(F)(F)F)CC3)c(Cl)cc2N1 (some centres not stated)	> 100 µM		> 100 µM	> 100 µM	> 100 µM	> 100 µM		> 100 µM	> 100 µM	> 100 µM	> 100 µM	> 100 µM	> 100 µM	> 100 µM	> 100 µM	> 100 µM	> 100 µM	> 100 µM
C#CCOc1ccc2ncnc(Nc3ccc(NC(=O)C=C)cc3)c2c1	> 100 µM		> 100 µM	32.5 µM	> 100 µM	> 100 µM		9.03 µM	3.53 µM	> 100 µM	> 100 µM	> 100 µM	4.97 µM	34.6 µM	79.3 µM	> 100 µM	> 100 µM	2.62 µM
N#C/C(=C/NC(=S)c1ccncc1)C(N)=O	> 100 µM		> 100 µM	> 100 µM	> 100 µM	> 100 µM		> 100 µM		> 100 µM							> 100 µM	

Source: PubChem BioAssay (NCI)
